Data: ChEMBL document CHEMBL5625225, “Vinylphosphonate-based cyclic dinucleotides enhance STING-mediated cancer immunotherapy” (Eur J Med Chem, 2023)

What was measured:
[1] = target: T1, Stimulator of interferon genes protein (Homo sapiens, UniProt Q86WV6); experiment: Agonist activity at STING R232 mutant (unknown origin) expressed in digitonin -permeabilized HEK293T cells preincubated for 30 mins followed by washout and measured after 5 hrs by Bright-glo luciferase assay; type: cell-based
Target sequence in this assay (Q86WV6 whole entry, looked up, stated change not applied): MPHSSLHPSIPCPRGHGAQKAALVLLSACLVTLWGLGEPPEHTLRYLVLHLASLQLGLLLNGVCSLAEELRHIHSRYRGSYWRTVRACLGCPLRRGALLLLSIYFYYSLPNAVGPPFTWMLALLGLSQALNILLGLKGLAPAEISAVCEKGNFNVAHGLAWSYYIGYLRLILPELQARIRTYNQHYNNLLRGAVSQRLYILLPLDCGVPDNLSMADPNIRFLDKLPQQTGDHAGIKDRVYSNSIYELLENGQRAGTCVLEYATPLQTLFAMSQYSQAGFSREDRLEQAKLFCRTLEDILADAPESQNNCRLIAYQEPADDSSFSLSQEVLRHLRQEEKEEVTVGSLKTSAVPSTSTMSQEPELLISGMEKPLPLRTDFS

[2] = target: Stimulator of interferon genes protein (Homo sapiens, UniProt Q86WV6, G230A/R293Q/R71H); experiment: Agonist activity at STING R71H/G230A/R293Q mutant (unknown origin) expressed in digitonin -permeabilized HEK293T cells preincubated for 30 mins followed by washout and measured after 5 hrs by Bright-glo luciferase assay; type: cell-based
Stimulator of interferon genes protein (Homo sapiens, UniProt Q86WV6, G230A/R293Q/R71H), sequence (Q86WV6 whole entry R71H/G230A/R293Q): as the sequence (Q86WV6 whole entry, looked up, stated change not applied) above, with R71H, G230A, R293Q counted along it

[3] = Agonist activity at STING R232H mutant (unknown origin) expressed in digitonin -permeabilized HEK293T cells preincubated for 30 mins followed by washout and measured after 5 hrs by Bright-glo luciferase assay; type: cell-based; settings: Homo sapiens, HEK-293T
[4] = target: Stimulator of interferon genes protein (Homo sapiens, UniProt Q86WV6, G230A/R293Q); experiment: Agonist activity at STING G230A/R293Q mutant (unknown origin) expressed in digitonin -permeabilized HEK293T cells preincubated for 30 mins followed by washout and measured after 5 hrs by Bright-glo luciferase assay; type: cell-based
Stimulator of interferon genes protein (Homo sapiens, UniProt Q86WV6, G230A/R293Q), sequence (Q86WV6 whole entry G230A/R293Q): as the sequence (Q86WV6 whole entry, looked up, stated change not applied) above, with G230A, R293Q counted along it

[5] = target: Stimulator of interferon genes protein (Homo sapiens, UniProt Q86WV6, R293Q); experiment: Agonist activity at STING R293Q mutant (unknown origin) expressed in digitonin -permeabilized HEK293T cells preincubated for 30 mins followed by washout and measured after 5 hrs by Bright-glo luciferase assay; type: cell-based
Stimulator of interferon genes protein (Homo sapiens, UniProt Q86WV6, R293Q), sequence (Q86WV6 whole entry R293Q): as the sequence (Q86WV6 whole entry, looked up, stated change not applied) above, with R293Q counted along it

[6] = test system: Stimulator of interferon genes protein (Homo sapiens), Q86WV6 [UNDEFINED MUTATION]; settings: filed as agonist
Stimulator of interferon genes protein (Homo sapiens), Q86WV6 [UNDEFINED MUTATION], sequence (Q86WV6 whole entry, looked up, stated change not applied): as the sequence (Q86WV6 whole entry, looked up, stated change not applied) above
Description: Binding affinity to STING R232 mutant (unknown origin) assessed as change in melting temperature by differential scanning fluorimetry analysis

[7] = test system: Stimulator of interferon genes protein (Homo sapiens), Q86WV6 [G230A,R293Q]; settings: filed as agonist
Stimulator of interferon genes protein (Homo sapiens), Q86WV6 [G230A,R293Q], sequence (Q86WV6 whole entry G230A/R293Q): as the sequence (Q86WV6 whole entry, looked up, stated change not applied) above, with G230A, R293Q counted along it
Description: Binding affinity to STING G230A/R293Q mutant (unknown origin) assessed as change in melting temperature by differential scanning fluorimetry analysis

[8] = target: T1, Stimulator of interferon genes protein; experiment: Agonist activity at wild type STING (unknown origin) expressed in HEK293T cells preincubated for 30 mins followed by washout and measured after 6.5 hrs by Bright-glo luciferase assay; type: cell-based
Target sequence in this assay (Q86WV6 whole entry): as the sequence (Q86WV6 whole entry, looked up, stated change not applied) above

[9] = target: T1, Stimulator of interferon genes protein; experiment: Agonist activity at wild type STING (unknown origin) expressed in HEK293T cells measured after 7 hrs by Bright-glo luciferase assay; type: cell-based
Target sequence in this assay (Q86WV6 whole entry): as the sequence (Q86WV6 whole entry, looked up, stated change not applied) above

[10] = Induction of cytokine production in human PBMC cells assessed as IFN-gamma level incubated for 60 mins followed by washout and measured after 15 hrs; type: functional, cell-based
[11] = Induction of cytokine production in human PBMC cells assessed as TNF-alpha level incubated for 60 mins followed by washout and measured after 15 hrs; type: functional, cell-based
[12] = Induction of cytokine production in human PBMC cells assessed as IFN-alpha level incubated for 60 mins followed by washout and measured after 15 hrs; type: functional, cell-based
[13] = Stability in human plasma assessed as half life at 5 uM measured upto 120 mins by UPLC/MS analysis; type: ADME, cell-free
[14] = Stability in mouse plasma assessed as half life at 5 uM measured upto 120 mins by UPLC/MS analysis; type: ADME, cell-free

Compound	EC50 [1]	EC50 [2]	EC50 [3]	EC50 [4]	EC50 [5]	ΔTm [6]	ΔTm [7]	EC50 [8]	EC50 [9]	also measured
Nc1ncnc2c1ncn2[C@@H]1O[C@@H]2COP(=O)(O)O[C@H]3C[C@H](n4cnc5c(N)ncnc54)O[C@@H]3/C=C/P(=O)(O)O[C@H]2[C@H]1F	750 nM	280 nM	> 45000 nM	400 nM	6570 nM	2.3 °C	8.2 °C			
CC(C)OC(=O)OCOP1(=O)/C=C/[C@H]2O[C@@H](n3cnc4c(N)ncnc43)[C@H](F)[C@@H]2OP(=O)(OCOC(=O)OC(C)C)OC[C@H]2O[C@@H](n3cnc4c(N)ncnc43)[C@H](F)[C@@H]2O1 (stereo in doubt; 12C)								250 nM	70 nM	EC50 ([10]; Homo sapiens, PBMC): 1300 nM; EC50 ([11]; Homo sapiens, PBMC): 250 nM; EC50 ([12]; Homo sapiens, PBMC): 600 nM
CC(C)OC(=O)OCOP1(=O)/C=C/[C@H]2O[C@@H](n3cnc4c(N)ncnc43)[C@H](F)[C@@H]2OP(=O)(OCOC(=O)OC(C)C)OC[C@H]2O[C@@H](n3cnc4c(N)ncnc43)[C@H](F)[C@@H]2O1 (stereo in doubt; 12B)								2630 nM	1250 nM	
CC1(C(=O)OCOP2(=O)/C=C/[C@H]3O[C@@H](n4cnc5c(N)ncnc54)[C@H](F)[C@@H]3OP(=O)(OCOC(=O)C3(C)CCCCC3)OC[C@H]3O[C@@H](n4cnc5c(N)ncnc54)[C@H](F)[C@@H]3O2)CCCCC1 (stereo in doubt; 14A)								500 nM	250 nM	
CCC(C)(C)C(=O)OCOP1(=O)/C=C/[C@H]2O[C@@H](n3cnc4c(N)ncnc43)[C@H](F)[C@@H]2OP(=O)(OCOC(=O)C(C)(C)CC)OC[C@H]2O[C@@H](n3cnc4c(N)ncnc43)[C@H](F)[C@@H]2O1 (stereo in doubt; 13A)								450 nM	150 nM	
Nc1nc2c(ncn2[C@H]2C[C@@H]3OP(=O)(O)/C=C/[C@H]4O[C@@H](n5cnc6c(N)ncnc65)[C@H](F)[C@@H]4OP(=O)(O)OC[C@H]3O2)c(=O)[nH]1	120 nM	140 nM	9500 nM	130 nM	2950 nM	5.2 °C	11.4 °C			
CCCCCCCC(=O)OCOP1(=O)/C=C/[C@H]2O[C@@H](n3cnc4c(N)ncnc43)[C@H](F)[C@@H]2OP(=O)(OCOC(=O)CCCCCCC)OC[C@H]2O[C@@H](n3cnc4c(N)ncnc43)[C@H](F)[C@@H]2O1 (stereo in doubt; 15C)								5 nM	3 nM	EC50 ([10]; pbmc): 170 nM; EC50 ([11]; pbmc): 280 nM; EC50 ([12]; pbmc): 120 nM; half-life at 5 µM [13]: 19 min; half-life at 5 µM [14]: 3 min
Nc1nc2c(ncn2[C@H]2C[C@@H]3OP(=O)(O)/C=C/[C@H]4O[C@@H](n5cnc6c(N)ncnc65)C[C@@H]4OP(=O)(O)OC[C@H]3O2)c(=O)[nH]1	10800 nM	240 nM	> 45000 nM	390 nM	> 45000 nM	0.9 °C	4.5 °C			
Nc1nc2c(ncn2[C@@H]2O[C@@H]3/C=C/P(=O)(O)O[C@H]4[C@@H](F)[C@H](n5cnc6c(=O)[nH]c(N)nc65)O[C@@H]4COP(=O)(O)O[C@H]3[C@H]2F)c(=O)[nH]1	500 nM	950 nM	3690 nM	950 nM	8650 nM	3.4 °C	8.8 °C			
CC(C)(C)C(=O)OCOP1(=O)/C=C/[C@H]2O[C@@H](n3cnc4c(N)ncnc43)[C@H](F)[C@@H]2OP(=O)(OCOC(=O)C(C)(C)C)OC[C@H]2O[C@@H](n3cnc4c(N)ncnc43)[C@H](F)[C@@H]2O1 (stereo in doubt; 11C)								10 nM	12 nM	EC50 ([10]; pbmc): 50 nM; EC50 ([11]; pbmc): 40 nM; EC50 ([12]; pbmc): 60 nM; half-life at 5 µM [13]: 49 min; half-life at 5 µM [14]: 4 min
Nc1nc2c(ncn2[C@H]2C[C@@H]3OP(=O)(O)OC[C@H]4O[C@@H](n5cnc6c(N)ncnc65)C[C@@H]4OP(=O)(O)/C=C/[C@H]3O2)c(=O)[nH]1	780 nM	440 nM	> 45000 nM	210 nM	> 45000 nM	1.9 °C	8.6 °C			
CC(C)(C)C(=O)OCOP1(=O)/C=C/[C@H]2O[C@@H](n3cnc4c(N)ncnc43)C[C@@H]2OP(=O)(OCOC(=O)C(C)(C)C)OC[C@H]2O[C@@H](n3cnc4c(N)ncnc43)[C@H](F)[C@@H]2O1 (stereo in doubt; 24A)								9930 nM	12100 nM	
CC(C)(C)C(=O)OCOP1(=O)/C=C/[C@H]2O[C@@H](n3cnc4c(N)ncnc43)[C@H](F)[C@@H]2OP(=O)(OCOC(=O)C(C)(C)C)OC[C@H]2O[C@@H](n3cnc4c(N)ncnc43)[C@H](F)[C@@H]2O1 (stereo in doubt; 11A)								130 nM	60 nM	
CCCCCCCC(=O)OCOP1(=O)/C=C/[C@H]2O[C@@H](n3cnc4c(N)ncnc43)[C@H](F)[C@@H]2OP(=O)(OCOC(=O)CCCCCCC)OC[C@H]2O[C@@H](n3cnc4c(N)ncnc43)[C@H](F)[C@@H]2O1 (stereo in doubt; 15B)								4 nM	3 nM	EC50 ([10]; pbmc): 60 nM; EC50 ([11]; pbmc): 70 nM; EC50 ([12]; Homo sapiens, PBMC): 80 nM
Nc1nc2c(ncn2[C@@H]2O[C@@H]3/C=C/P(=O)(O)O[C@H]4[C@@H](F)[C@H](n5cnc6c(N)ncnc65)O[C@@H]4COP(=O)(O)O[C@H]3[C@H]2F)c(=O)[nH]1	20 nM	60 nM	320 nM	80 nM	460 nM	9.4 °C	15.2 °C			
CCC(C)(C)C(=O)OCOP1(=O)/C=C/[C@H]2O[C@@H](n3cnc4c(N)ncnc43)[C@H](F)[C@@H]2OP(=O)(OCOC(=O)C(C)(C)CC)OC[C@H]2O[C@@H](n3cnc4c(N)ncnc43)[C@H](F)[C@@H]2O1 (stereo in doubt; 13C)								35 nM	7 nM	EC50 ([10]; Homo sapiens, PBMC): 20 nM; EC50 ([11]; Homo sapiens, PBMC): 120 nM; EC50 ([12]; Homo sapiens, PBMC): 60 nM; half-life at 5 µM [13]: 86 min; half-life at 5 µM [14]: 4 min
CC(C)OC(=O)OCOP1(=O)/C=C/[C@H]2O[C@@H](n3cnc4c(N)ncnc43)[C@H](F)[C@@H]2OP(=O)(OCOC(=O)OC(C)C)OC[C@H]2O[C@@H](n3cnc4c(N)ncnc43)[C@H](F)[C@@H]2O1 (stereo in doubt; 12A)								7950 nM	9500 nM	
CC1(C(=O)OCOP2(=O)/C=C/[C@H]3O[C@@H](n4cnc5c(N)ncnc54)[C@H](F)[C@@H]3OP(=O)(OCOC(=O)C3(C)CCCCC3)OC[C@H]3O[C@@H](n4cnc5c(N)ncnc54)[C@H](F)[C@@H]3O2)CCCCC1 (stereo in doubt; 14B)								225 nM	80 nM	EC50 ([10]; pbmc): 250 nM; EC50 ([11]; pbmc): 140 nM; EC50 ([12]; pbmc): 300 nM
Nc1nc2c(ncn2[C@@H]2O[C@@H]3COP(=O)(O)O[C@H]4C[C@H](n5cnc6c(N)ncnc65)O[C@@H]4/C=C/P(=O)(O)O[C@H]3[C@H]2F)c(=O)[nH]1	700 nM	350 nM	25500 nM	290 nM	4150 nM	4.8 °C	11.9 °C			
CC(C)(C)C(=O)OCOP1(=O)/C=C/[C@H]2O[C@@H](n3cnc4c(N)ncnc43)[C@H](F)[C@@H]2OP(=O)(OCOC(=O)C(C)(C)C)OC[C@H]2O[C@@H](n3cnc4c(N)ncnc43)[C@H](F)[C@@H]2O1 (stereo in doubt; 11B)								30 nM	22 nM	EC50 ([10]; pbmc): 750 nM; EC50 ([11]; pbmc): 330 nM; EC50 ([12]; pbmc): 350 nM
CCC(C)(C)C(=O)OCOP1(=O)/C=C/[C@H]2O[C@@H](n3cnc4c(N)ncnc43)[C@H](F)[C@@H]2OP(=O)(OCOC(=O)C(C)(C)CC)OC[C@H]2O[C@@H](n3cnc4c(N)ncnc43)[C@H](F)[C@@H]2O1 (stereo in doubt; 13B)								35 nM	14 nM	
Nc1ncnc2c1ncn2[C@@H]1O[C@@H]2/C=C/P(=O)(O)O[C@H]3C[C@H](n4cnc5c(N)ncnc54)O[C@@H]3COP(=O)(O)O[C@H]2[C@H]1F	280 nM	270 nM	> 45000 nM	390 nM	1500 nM	2.7 °C	8.9 °C	> 200000 nM	71700 nM	
CCCCCCCC(=O)OCOP1(=O)/C=C/[C@H]2O[C@@H](n3cnc4c(N)ncnc43)[C@H](F)[C@@H]2OP(=O)(OCOC(=O)CCCCCCC)OC[C@H]2O[C@@H](n3cnc4c(N)ncnc43)[C@H](F)[C@@H]2O1 (stereo in doubt; 15A)								350 nM	20 nM	
CC(C)(C)C(=O)OCOP1(=O)/C=C/[C@H]2O[C@@H](n3cnc4c(N)ncnc43)C[C@@H]2OP(=O)(OCOC(=O)C(C)(C)C)OC[C@H]2O[C@@H](n3cnc4c(N)ncnc43)[C@H](F)[C@@H]2O1 (stereo in doubt; 24B)								550 nM	675 nM	
CC(C)(C)C(=O)OCOP1(=O)/C=C/[C@H]2O[C@@H](n3cnc4c(N)ncnc43)C[C@@H]2OP(=O)(OCOC(=O)C(C)(C)C)OC[C@H]2O[C@@H](n3cnc4c(N)ncnc43)[C@H](F)[C@@H]2O1 (stereo in doubt; 24C)								210 nM	260 nM	
